# Experimental data published in patent US20230219969A1 (priority 2020, published 2023).
# Read-outs that look alike come from different tables or passages of the source.
# Assays:
# [1] = tested on: 5HT2A; type: cell-based; conditions: result in words
# [2] = tested on: Rat cortical neurons; assay: Neurite Outgrowth in Primary Neuronal Cultures Assay (Procedure B); type: cell-based; design: key: A: Statistically significant mean increase as a percent of DMSO control at 10 μM or less; B: No statistically significant mean increase as a percent of DMSO control at 10 μM or less; conditions: 72 h, percent of DMSO control at 10 μM or less
# Description: Neurite Outgrowth in Primary Neuronal Cultures Assay (Procedure B). Changes in the pattern of neurite outgrowth have been implicated in psychiatric and neurodegenerative disorders as well as traumatic injuries. The discovery of new compounds that can positively affect neuritogenesis are important for developing new therapeutics for neurological diseases. Measurement of neurite outgrowth of rat cortical neurons using an automated image-based assay was used to determine the neuroplastic effects of the compounds of the present invention. The neurite outgrowth assay was performed at Neurofit SAS (France) as described below.
# Pregnant Wistar rats (Janvier; France) were used for the study. They were delivered 6 days before their use. Upon arrival at Neurofit animal facility, they were housed one per cage and maintained in a room with controlled temperature (21-22° C.) and a reversed light-dark cycle (12 h/12 h; lights on: 17:30-05:30; lights off: 05:30-17:30) with food and water available ad libitum.
# Female Wistar rats of 17 days gestation were killed by cervical dislocation and the fetuses were removed from the uterus. Their brains were placed in ice-cold medium of Leibovitz (L15, Gibco, Fisher bioblock, France). Cortices were dissected and meninges were carefully removed. The cortical neurons were dissociated by trypsinization for 30 min at 37° C. (trypsin-EDTA, Gibco) in presence of 0.1 mg/ml DNAse I (Roche, France). The reaction was stopped by addition of Dulbecco's Modified Eagle Medium (DMEM; Gibco) with 10% of fetal bovine serum (FBS; Gibco). The suspension was triturated with a 10-ml pipette and using a needle syringe 21G and centrifuged at 350×g for 10 min at room temperature. The pellet of dissociated cells was resuspended in a medium consisting of Neurobasal (Gibco) supplemented with 2% B27 supplement (Gibco), 0.5 mM L-Glutamine (Gibco), an antibiotic-antimicotic mixture. Viable cells were counted in a Neubauer cytometer using the trypan blue exclusion test (Sigma). Cells were seeded at a density of 10000 cells per well in 96-well plate (Costar) precoated with poly-L-lysine. Test compound at different concentrations were added to the cultures. Donepezil (positive control) was tested at 250 nM.
# After 72 h (3 days) of plating, cultures were fixed with paraformaldehyde in PBS (4%, Sigma) for 30 min at 4° C. Then, cells were successively permeabilized with 0.1% Triton X100 for 30 min, saturated with PBS containing 3% of BSA and were incubated 1 h with anti-beta III tubulin antibody (Sigma) at 1/10 000 in PBS containing 0.5% of BSA. Cells were washed three times with PBS containing 0.5% of BSA, and they were incubated 1 h with goat anti-mouse antibody coupled with AF488 (Invitrogen A11001) diluted at 1/1000 in PBS containing 0.5% of BSA. Finally, nuclei were staining with DAPI 1 mg/ml at 1/1000 in PBS containing 0.5% of BSA. After rinsing with PBS, the plate was filmed and neurite networks were examined and analyzed using High-Content Screening (CellInsight, Thermo Scientific). The average number of neurites per neuron and the average total length of neurites per neuron were the main parameters analyzed. Analysis of data was performed using analysis of variance (ANOVA). The Fisher's Protected Least Significant Difference test was used for multiple comparisons. A p value<0.05 was considered significant. The software used is StatView 5.0 from SAS Institut.
# In some embodiments, a compound of the present invention increases the pattern of neurite outgrowth. In some embodiments, a compound of the present invention increases neurite average length compared to a control. In some embodiments, a compound of the present invention increases neurite branch points compared to a control.
# [3] = target: T1, 5HT2A (Homo sapiens, UniProt P28223); assay: Serotonin 5-HT2A in vitro radioligand binding competition assay ([3H]-DOI); design: purchased Epics Therapeutics S.A. (Belgium) FAST-0505B
# Procedure: Serotonin 5-HT2A In Vitro Radioligand Binding Competition Assay. The 5-HT2A radioligand binding competition assay was performed at Epics Therapeutics S.A. (Belgium, FAST-0505B) using conventional methods. Briefly, competition binding is performed in duplicate in the wells of a 96 well plate (Master Block, Greiner, 786201) containing binding buffer (optimized for each receptor), membrane extracts (amount of protein/well optimized for each receptor), radiotracer [^3H]-DOI (final concentration optimized for each receptor) and test compound. Nonspecific binding is determined by co-incubation with 200-fold excess of cold competitor. The samples are incubated in a final volume of 0.1 ml at a temperature and for a duration optimized for each receptor and then filtered over filter plates. Filters are washed six times with 0.5 ml of ice-cold washing buffer (optimized for each receptor) and 50 μl of Microscint 20 (Packard) are added in each well. The plates are incubated 15 min on an orbital shaker and then counted with a TopCount™ for 1 min/well.
# (§1) The compounds provided herein were tested in the Serotonin 5-HT2A and 5-HT2C in vitro radioligand binding and cellular IPOne agonism assays. The binding and agonism functional potencies of several compound provided herein compounds (as indicated by their IC50s or EC50s) are shown in Table 11.
# [4] = target: T1, 5HT2A; assay: Serotonin 5-HT2A in vitro cellular IPOne agonism assay; type: cell-based; design: host or cells: CHO-K1
# Procedure: Serotonin 5-HT2A In Vitro Cellular IPOne Agonism Assay. The 5-HT2A IPOne HTRF assay was performed at Epics Therapeutics S.A. (Belgium, FAST-0505I) using conventional methods. Briefly, CHO-K1 cells expressing human recombinant 5-HT2A receptor grown to mid-log phase in culture media without antibiotics were detached with PBS-EDTA, centrifuged, and resuspended in medium without antibiotics buffer. 20,000 cells are distributed in a 96 well plate and incubated overnight at 37° C. with 5% CO2.
# For agonist testing, the medium is removed and 20 μl of assay buffer plus 20 μl of test compound or reference agonist are added in each well. The plate is incubated for 60 min. at 37° C. with 5% CO2.
# After addition of the lysis buffer containing IP1-d2 and anti-IP1 cryptate detection reagents, plates are incubated 1-hour at room temperature, and fluorescence ratios are measured according to the manufacturer specification, with the HTRF kit.
# as §1
# [5] = [3H]-DOI competition, membrane extracts, read-out: 5-HT2A Radioligand Binding Activity
# [6] = CHO-K1 cells, IPOne HTRF, read-out: 5-HT2A IPOne Agonism Activity
# T1 sequence (P28223 whole entry): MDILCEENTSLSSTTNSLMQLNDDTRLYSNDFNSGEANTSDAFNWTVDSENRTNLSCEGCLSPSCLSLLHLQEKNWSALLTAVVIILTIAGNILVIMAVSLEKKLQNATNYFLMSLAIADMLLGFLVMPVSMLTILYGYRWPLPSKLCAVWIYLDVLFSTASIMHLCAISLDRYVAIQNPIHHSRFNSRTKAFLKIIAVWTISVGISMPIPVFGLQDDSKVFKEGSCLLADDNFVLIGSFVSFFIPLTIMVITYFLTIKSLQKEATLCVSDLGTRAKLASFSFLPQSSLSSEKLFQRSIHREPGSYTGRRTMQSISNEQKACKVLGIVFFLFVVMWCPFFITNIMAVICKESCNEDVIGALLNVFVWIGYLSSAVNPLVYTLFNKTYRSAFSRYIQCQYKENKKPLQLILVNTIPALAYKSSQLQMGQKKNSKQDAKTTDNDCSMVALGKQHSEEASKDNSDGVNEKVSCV
SMILES,activation of 5HT2A sensor assay in agonist mode [1],Increase in Neurite Length [2],Increase in Neurite Number [2],"IC50 [3, 5] [µM]","EC50 [4, 6] [µM]",IC50 [3] [µM],EC50 [4] [µM]
CCN(CC)C(=O)[C@@H]1C=C2c3cccc4[nH]c(Br)c(c34)C[C@H]2N(C)C1 [BOL148],do not activate the 5HT2A sensor assay in agonist mode,,,,,,
"CN(C)CCc1c[nH]c2ccccc12 [DMT, N,N-dimethyltryptamine]",activate the 5HT2A sensor assay in agonist mode,,,,,,
COc1cc(CC(C)N)c(OC)cc1I (stereo not shown) [DOI],activate the 5HT2A sensor assay in agonist mode,,,,,,
CCN(CC)CCc1c[nH]c2cc(F)ccc12 [Example 6-F-DET],do not activate the 5HT2A sensor assay in agonist mode,,,,,,
"COc1ccc2c(c1)CCCN2CCN(C)C [Example 9, 2-(6-methoxy-3,4-dihydroquinolin-1(2H)-yl)-N,N-dimethylethan-1-amine]",,B,B,0.101 to 1,> 10,,
"COc1ccc2c(ccn2[C@H]2C[C@@H](N(C)C)C2)c1 [Example 24, (1s,3s)-3-(5-methoxy-1H-indol-1-yl)-N,N-dimethylcyclobutan-1-amine]",,A,B,> 10,> 10,,
"COc1ccc2c(ccn2[C@H]2C[C@H](N(C)C)C2)c1 [Example 25, (1r,3r)-3-(5-methoxy-1H-indol-1-yl)-N,N-dimethylcyclobutan-1-amine]",,A,B,> 10,> 10,,
"C[C@H](Cn1ccc2cncnc21)N(C)C [Example 27, (R)—N,N-dimethyl-1-(7H-pyrrolo[2,3-d]pyrimidin-7-yl)propan-2-amine]",,A,B,> 10,> 10,,
"COc1ccc2c(ccn2C[C@@H](C)N)n1 [Example 28, (R)-1-(5-methoxy-1H-pyrrolo[3,2-b]pyridin-1-yl)propan-2-amine]",,A,B,> 10,> 10,,
"CN[C@H](C)Cn1ccc2nc(OC)ccc21 [Example 29, (R)-1-(5-methoxy-1H-pyrrolo[3,2-b]pyridin-1-yl)-N-methylpropan-2-amine]",,A,B,> 10,> 10,,
"COc1ccc2c(ccn2C[C@@H](C)N(C)C)n1 [Example 30, (R)-1-(5-methoxy-1H-pyrrolo[3,2-b]pyridin-1-yl)-N,N-dimethylpropan-2-amine]",,A,A,> 10,> 10,,
"COc1cc2ccn(C[C@@H](C)N)c2cn1 [Example 31, (R)-1-(5-methoxy-1H-pyrrolo[2,3-c]pyridin-1-yl)propan-2-amine]",,B,B,1 to 10,1 to 10,,
"CN[C@H](C)Cn1ccc2cc(OC)ncc21 [Example 32, (R)-1-(5-methoxy-1H-pyrrolo[2,3-c]pyridin-1-yl)-N-methylpropan-2-amine]",,B,B,> 10,> 10,,
"COc1cc2ccn(C[C@@H](C)N(C)C)c2cn1 [Example 33, (R)-1-(5-methoxy-1H-pyrrolo[2,3-c]pyridin-1-yl)-N,N-dimethylpropan-2-amine]",,A,B,> 10,> 10,,
"COc1cnc2c(ccn2C[C@@H](C)N(C)C)c1 [Example 36, (R)-1-(5-methoxy-1H-pyrrolo[2,3-b]pyridin-1-yl)-N,N-dimethylpropan-2-amine]",,B,B,> 10,> 10,,
"C[C@H](Cn1ccc2cnccc21)N(C)C [Example 39, (R)—N,N-dimethyl-1-(1H-pyrrolo[3,2-c]pyridin-1-yl)propan-2-amine]",,B,B,> 10,> 10,,
"COc1ccc2c(ccn2C(=O)CN(C)C)c1 [Example 45, 2-(dimethylamino)-1-(5-methoxy-1H-indol-1-yl)ethan-1-one]",,B,B,> 10,> 10,,
"COc1ccc2c(ccn2C(=O)[C@@H](C)N(C)C)c1 [Example 47, (R)-2-(dimethylamino)-1-(5-methoxy-1H-indol-1-yl)propan-1-one]",,B,B,,,> 10,> 10
O=C(c1ccc(F)cc1)C1CCN(CCn2c(=O)[nH]c3ccccc3c2=O)CC1 [Ketanserin],do not activate the 5HT2A sensor assay in agonist mode,,,,,,
CNC(C)Cc1ccc2c(c1)OCO2 [L-MDMA],do not activate the 5HT2A sensor assay in agonist mode,,,,,,
CCN(CC)C(=O)[C@@H]1C=C2c3cccc4[nH]cc(c34)C[C@H]2N(C)C1 [LSD],activate the 5HT2A sensor assay in agonist mode,,,,,,
CN[C@H](C)Cc1ccc2c(c1)OCO2 [R-MDMA],do not activate the 5HT2A sensor assay in agonist mode,,,,,,
